Measured values published in publication PMC10004634 (PLOS ONE, 2023).
Where two headings read alike, the source gives them in different places.

How the values were obtained:
Assay in all cases: biochemical
Set-up in all cases: KINOMEscan scanMAX competition binding, DNA-tagged kinases, qPCR read-out, percent control at 300 nM
[1] = target: ABL2 (Homo sapiens, UniProt P42684)
[2] = target: CDK2 (Homo sapiens, UniProt P24941)
[3] = target: CSF1R (Homo sapiens, UniProt P07333)
[4] = target: T1, IRAK3 (Homo sapiens, UniProt Q9Y616)
T1 sequence (Q9Y616 1-596): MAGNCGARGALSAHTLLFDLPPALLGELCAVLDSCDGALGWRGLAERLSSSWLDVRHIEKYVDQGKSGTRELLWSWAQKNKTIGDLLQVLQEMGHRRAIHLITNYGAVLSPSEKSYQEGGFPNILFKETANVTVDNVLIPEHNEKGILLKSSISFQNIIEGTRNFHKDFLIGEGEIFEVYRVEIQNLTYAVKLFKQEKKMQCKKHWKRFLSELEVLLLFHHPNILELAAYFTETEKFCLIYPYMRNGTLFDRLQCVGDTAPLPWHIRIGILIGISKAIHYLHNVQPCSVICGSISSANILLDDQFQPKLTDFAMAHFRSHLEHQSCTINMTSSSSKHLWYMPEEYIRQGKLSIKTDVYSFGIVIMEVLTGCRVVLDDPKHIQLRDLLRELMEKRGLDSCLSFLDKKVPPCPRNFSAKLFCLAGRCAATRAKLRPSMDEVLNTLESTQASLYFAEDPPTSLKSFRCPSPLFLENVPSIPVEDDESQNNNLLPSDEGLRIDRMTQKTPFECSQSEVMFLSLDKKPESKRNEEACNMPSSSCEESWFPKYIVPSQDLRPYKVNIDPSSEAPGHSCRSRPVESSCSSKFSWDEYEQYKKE

[5] = target: T2, PAK7 (Homo sapiens, UniProt Q9P286)
T2 construct: gene PAK5

[6] = target: T3, RIPK1 (Homo sapiens, UniProt Q13546)
T3 sequence (Q13546 1-671): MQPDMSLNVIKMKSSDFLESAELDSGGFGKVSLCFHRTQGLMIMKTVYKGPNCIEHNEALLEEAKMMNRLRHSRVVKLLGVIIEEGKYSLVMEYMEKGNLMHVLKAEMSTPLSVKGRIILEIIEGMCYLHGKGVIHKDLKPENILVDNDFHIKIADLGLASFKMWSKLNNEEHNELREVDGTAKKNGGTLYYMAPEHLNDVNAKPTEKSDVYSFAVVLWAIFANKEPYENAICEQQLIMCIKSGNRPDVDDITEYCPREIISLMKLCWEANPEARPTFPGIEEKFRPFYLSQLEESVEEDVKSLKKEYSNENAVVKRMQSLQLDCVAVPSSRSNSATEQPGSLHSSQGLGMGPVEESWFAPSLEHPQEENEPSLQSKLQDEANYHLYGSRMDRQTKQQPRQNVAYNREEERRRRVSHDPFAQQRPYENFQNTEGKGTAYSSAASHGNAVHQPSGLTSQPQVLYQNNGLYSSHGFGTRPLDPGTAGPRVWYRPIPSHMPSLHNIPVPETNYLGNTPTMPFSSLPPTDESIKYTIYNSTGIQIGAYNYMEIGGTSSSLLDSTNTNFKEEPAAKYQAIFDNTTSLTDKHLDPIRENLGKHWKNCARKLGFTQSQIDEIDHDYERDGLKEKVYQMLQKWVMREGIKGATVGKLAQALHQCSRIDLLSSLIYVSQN

[7] = target: ROCK2 (Homo sapiens, UniProt O75116)
[8] = target: ROS1 (Homo sapiens, UniProt P08922)
[9] = target: T4, VEGFR2 (Homo sapiens, UniProt P35968)
T4 construct: gene KDR

[10] = target: PDGFRA (Homo sapiens, UniProt P16234)
[11] = read-out: Percent control / Acalabrutinib
[12] = read-out: Percent control / Ibrutinib
[13] = read-out: Percent control / Tirabrutinib
[14] = read-out: Percent control / Zanubrutinib

Sequence of ROS1 (P08922 whole entry): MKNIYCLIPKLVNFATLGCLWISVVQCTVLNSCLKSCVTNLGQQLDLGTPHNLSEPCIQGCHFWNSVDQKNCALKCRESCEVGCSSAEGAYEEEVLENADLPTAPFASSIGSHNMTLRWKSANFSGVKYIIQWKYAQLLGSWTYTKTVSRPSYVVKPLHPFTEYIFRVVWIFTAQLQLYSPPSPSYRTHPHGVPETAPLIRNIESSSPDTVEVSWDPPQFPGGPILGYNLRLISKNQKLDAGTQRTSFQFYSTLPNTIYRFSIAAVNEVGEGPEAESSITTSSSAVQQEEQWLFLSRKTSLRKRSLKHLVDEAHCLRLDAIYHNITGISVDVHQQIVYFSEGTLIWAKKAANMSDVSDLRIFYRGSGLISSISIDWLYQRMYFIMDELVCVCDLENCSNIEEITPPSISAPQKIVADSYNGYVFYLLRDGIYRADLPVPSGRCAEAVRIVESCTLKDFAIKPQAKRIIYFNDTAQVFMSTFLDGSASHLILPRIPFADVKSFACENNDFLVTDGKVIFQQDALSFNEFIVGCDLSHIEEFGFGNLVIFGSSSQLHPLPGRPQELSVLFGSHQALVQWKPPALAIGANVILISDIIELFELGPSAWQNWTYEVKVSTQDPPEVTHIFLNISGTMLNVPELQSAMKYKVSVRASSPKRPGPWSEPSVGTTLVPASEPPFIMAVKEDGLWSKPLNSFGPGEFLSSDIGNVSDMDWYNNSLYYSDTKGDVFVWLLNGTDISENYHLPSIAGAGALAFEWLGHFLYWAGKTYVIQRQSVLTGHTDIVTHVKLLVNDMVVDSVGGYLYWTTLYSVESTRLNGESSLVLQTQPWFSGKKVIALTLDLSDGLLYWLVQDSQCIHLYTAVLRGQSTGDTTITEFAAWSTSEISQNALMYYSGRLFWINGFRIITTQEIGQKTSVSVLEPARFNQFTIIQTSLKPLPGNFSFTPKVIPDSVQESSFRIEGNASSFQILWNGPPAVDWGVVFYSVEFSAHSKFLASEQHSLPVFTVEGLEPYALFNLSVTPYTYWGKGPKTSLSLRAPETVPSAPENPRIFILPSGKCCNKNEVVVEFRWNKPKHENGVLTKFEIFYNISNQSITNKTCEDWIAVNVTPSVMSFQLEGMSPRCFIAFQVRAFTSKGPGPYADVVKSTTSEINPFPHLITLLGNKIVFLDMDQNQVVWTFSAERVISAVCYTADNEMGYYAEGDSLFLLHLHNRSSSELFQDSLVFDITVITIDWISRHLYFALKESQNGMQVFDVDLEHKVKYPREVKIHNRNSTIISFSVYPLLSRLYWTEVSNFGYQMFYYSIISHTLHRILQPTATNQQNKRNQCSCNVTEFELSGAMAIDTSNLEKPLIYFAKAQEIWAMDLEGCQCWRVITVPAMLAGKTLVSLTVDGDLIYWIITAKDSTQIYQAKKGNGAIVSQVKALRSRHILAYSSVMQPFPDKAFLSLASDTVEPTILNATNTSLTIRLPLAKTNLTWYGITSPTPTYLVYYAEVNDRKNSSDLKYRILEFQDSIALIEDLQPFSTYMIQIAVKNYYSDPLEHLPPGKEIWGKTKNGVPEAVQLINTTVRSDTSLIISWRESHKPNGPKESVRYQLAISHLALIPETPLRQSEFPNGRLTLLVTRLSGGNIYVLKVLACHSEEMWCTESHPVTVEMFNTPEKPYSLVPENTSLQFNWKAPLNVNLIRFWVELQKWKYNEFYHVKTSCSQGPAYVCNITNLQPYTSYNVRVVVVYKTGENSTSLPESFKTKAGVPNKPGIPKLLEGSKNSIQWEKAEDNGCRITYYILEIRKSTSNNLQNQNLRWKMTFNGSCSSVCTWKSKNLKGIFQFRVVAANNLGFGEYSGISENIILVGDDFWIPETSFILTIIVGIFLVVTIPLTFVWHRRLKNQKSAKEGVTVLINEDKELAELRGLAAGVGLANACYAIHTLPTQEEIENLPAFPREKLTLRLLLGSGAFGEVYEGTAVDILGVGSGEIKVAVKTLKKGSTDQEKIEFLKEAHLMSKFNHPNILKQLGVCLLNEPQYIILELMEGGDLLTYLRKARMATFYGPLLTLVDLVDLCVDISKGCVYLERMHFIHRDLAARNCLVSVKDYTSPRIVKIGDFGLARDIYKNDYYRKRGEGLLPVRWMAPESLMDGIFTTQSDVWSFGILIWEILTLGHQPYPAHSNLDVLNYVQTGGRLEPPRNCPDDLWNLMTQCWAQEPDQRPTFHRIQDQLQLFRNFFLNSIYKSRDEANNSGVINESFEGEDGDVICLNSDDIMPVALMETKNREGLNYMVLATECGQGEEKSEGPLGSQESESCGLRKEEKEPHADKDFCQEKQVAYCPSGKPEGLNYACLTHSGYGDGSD
Sequence of CSF1R (P07333 whole entry): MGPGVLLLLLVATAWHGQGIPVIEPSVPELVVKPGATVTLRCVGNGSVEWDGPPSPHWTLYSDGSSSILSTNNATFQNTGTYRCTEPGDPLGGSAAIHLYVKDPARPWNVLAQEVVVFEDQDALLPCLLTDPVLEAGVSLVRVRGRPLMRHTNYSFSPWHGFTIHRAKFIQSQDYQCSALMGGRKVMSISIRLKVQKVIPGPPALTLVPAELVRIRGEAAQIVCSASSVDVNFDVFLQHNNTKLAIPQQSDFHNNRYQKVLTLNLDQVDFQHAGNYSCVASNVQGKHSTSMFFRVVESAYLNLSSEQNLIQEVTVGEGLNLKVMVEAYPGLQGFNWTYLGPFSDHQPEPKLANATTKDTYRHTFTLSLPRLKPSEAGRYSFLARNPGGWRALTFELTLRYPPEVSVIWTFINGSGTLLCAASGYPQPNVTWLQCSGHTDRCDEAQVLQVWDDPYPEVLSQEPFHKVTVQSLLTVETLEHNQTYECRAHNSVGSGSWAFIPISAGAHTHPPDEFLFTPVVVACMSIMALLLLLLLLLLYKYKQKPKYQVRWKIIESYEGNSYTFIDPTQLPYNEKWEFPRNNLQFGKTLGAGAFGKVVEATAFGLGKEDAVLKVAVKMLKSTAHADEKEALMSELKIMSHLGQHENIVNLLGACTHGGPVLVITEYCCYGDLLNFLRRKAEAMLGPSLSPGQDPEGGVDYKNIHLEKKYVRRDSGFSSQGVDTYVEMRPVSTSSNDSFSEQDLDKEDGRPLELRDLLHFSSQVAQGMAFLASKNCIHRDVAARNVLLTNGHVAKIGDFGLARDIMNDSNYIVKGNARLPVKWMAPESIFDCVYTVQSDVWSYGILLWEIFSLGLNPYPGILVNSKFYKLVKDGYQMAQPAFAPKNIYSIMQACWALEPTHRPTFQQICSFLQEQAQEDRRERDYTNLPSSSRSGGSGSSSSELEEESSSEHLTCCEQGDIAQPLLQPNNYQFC
Sequence of ROCK2 (O75116 whole entry): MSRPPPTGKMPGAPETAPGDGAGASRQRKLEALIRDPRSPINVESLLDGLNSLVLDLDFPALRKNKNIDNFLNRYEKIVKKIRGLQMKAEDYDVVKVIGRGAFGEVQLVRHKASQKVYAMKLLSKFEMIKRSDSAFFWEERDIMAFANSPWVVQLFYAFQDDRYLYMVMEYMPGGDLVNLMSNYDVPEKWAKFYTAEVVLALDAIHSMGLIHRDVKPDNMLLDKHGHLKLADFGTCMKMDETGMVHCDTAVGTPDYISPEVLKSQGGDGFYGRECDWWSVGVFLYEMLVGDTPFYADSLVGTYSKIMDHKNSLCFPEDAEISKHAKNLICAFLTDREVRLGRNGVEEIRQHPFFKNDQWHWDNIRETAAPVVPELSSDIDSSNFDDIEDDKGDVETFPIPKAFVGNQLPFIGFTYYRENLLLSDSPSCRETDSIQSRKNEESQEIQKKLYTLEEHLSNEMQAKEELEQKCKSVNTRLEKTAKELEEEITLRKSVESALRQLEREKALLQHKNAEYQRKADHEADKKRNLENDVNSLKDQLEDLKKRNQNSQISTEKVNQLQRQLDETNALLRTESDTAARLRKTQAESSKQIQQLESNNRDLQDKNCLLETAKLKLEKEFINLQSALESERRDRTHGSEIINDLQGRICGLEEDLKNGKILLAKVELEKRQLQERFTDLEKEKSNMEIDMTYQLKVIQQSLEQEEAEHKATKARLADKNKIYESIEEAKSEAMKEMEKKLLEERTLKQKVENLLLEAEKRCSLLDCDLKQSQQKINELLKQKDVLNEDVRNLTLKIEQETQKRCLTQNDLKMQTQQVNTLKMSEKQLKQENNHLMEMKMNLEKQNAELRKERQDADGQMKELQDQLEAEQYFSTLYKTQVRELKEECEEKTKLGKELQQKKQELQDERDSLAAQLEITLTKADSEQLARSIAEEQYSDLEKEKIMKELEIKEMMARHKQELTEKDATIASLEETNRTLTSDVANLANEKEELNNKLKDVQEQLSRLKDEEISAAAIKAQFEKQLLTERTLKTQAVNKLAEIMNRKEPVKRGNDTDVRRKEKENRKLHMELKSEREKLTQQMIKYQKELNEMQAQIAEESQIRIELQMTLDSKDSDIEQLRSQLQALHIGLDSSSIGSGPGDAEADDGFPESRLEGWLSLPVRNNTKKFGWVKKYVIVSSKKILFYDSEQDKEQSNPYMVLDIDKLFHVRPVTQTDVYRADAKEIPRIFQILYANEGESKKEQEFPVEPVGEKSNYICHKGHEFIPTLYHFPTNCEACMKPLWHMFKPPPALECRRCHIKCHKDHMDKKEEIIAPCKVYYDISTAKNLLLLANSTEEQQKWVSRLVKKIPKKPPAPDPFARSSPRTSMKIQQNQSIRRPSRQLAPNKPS

CC#CC(=O)N1CCC[C@H]1c1nc(-c2ccc(C(=O)Nc3ccccn3)cc2)c2c(N)nccn12 [Acalabrutinib]
remaining binding at 0.3 µM [1, 11]: 97% | remaining binding at 0.3 µM [2, 11]: 86% | remaining binding at 0.3 µM [3, 11]: 88% | remaining binding at 0.3 µM [4, 11]: 86% | remaining binding at 0.3 µM [5, 11]: 76% | remaining binding at 0.3 µM [6, 11]: 93% | remaining binding at 0.3 µM [7, 11]: 94% | remaining binding at 0.3 µM [8, 11]: 86% | remaining binding at 0.3 µM [9, 11]: 98%

C=CC(=O)N1CCC[C@@H](n2nc(-c3ccc(Oc4ccccc4)cc3)c3c(N)ncnc32)C1 [Ibrutinib]
remaining binding at 0.3 µM [1, 12]: 82% | remaining binding at 0.3 µM [3, 12]: 66% | remaining binding at 0.3 µM [4, 12]: 86% | remaining binding at 0.3 µM [5, 12]: 94% | remaining binding at 0.3 µM [10, 12]: 96% | remaining binding at 0.3 µM [6, 12]: 93% | remaining binding at 0.3 µM [7, 12]: 84% | remaining binding at 0.3 µM [9, 12]: 95%

CC#CC(=O)N1CC[C@@H](n2c(=O)n(-c3ccc(Oc4ccccc4)cc3)c3c(N)ncnc32)C1 [Tirabrutinib]
remaining binding at 0.3 µM [2, 13]: 82% | remaining binding at 0.3 µM [4, 13]: 80% | remaining binding at 0.3 µM [10, 13]: 95% | remaining binding at 0.3 µM [7, 13]: 90% | remaining binding at 0.3 µM [8, 13]: 94%

C=CC(=O)N1CCC([C@@H]2CCNc3c(C(N)=O)c(-c4ccc(Oc5ccccc5)cc4)nn32)CC1 [Zanubrutinib]
remaining binding at 0.3 µM [1, 14]: 77% | remaining binding at 0.3 µM [2, 14]: 99% | remaining binding at 0.3 µM [3, 14]: 88% | remaining binding at 0.3 µM [4, 14]: 91% | remaining binding at 0.3 µM [5, 14]: 87% | remaining binding at 0.3 µM [10, 14]: 100% | remaining binding at 0.3 µM [6, 14]: 97% | remaining binding at 0.3 µM [7, 14]: 85% | remaining binding at 0.3 µM [8, 14]: 100% | remaining binding at 0.3 µM [9, 14]: 100%
